The values that follow come from US8536201B2, “Pesticidal arylpyrrolidines” (Bayer Intellectual Property GmbH, priority 2009, dated 2013).

Common to all, as to format: in vivo
One data set relates to Tetranychus urticae. In words: Two-spotted spider mite Tetranychus urticae spray test on kidney bean. Particulars: adult mites, after 7 days. On the procedure: BIOLOGICAL TEST EXAMPLE 2
Two-Spotted Spider Mite Tetranychus urticae
50 to 100 adult mites of Tetranychus urticae were inoculated to leaves of kidney bean at two-leaf stage planted in a pot of 6 cm in diameter. After one day, test solution at the appropriate concentration was sprayed thereon in a sufficient amount using a spray gun. After the spraying, the plant pot was placed inside a greenhouse, and after 7 days, the acaricidal activity was calculated. An acaricidal activity of 100% means that all mites were killed, an acaricidal activity of 0% means that no mite was killed.

The subject of the next data set is Aulacophora femoralis. In words: Cucurbit leaf beetle (Aulacophora femoralis) cucumber leaf dip test. The following applies: second instar larvae, treated cucumber leaves, after 7 days. Here is the method: BIOLOGICAL TEST EXAMPLE 3
Cucurbit Leaf Beetle (Aulacophora femoralis)
Leaves of cucumber were immersed in the test solution at the appropriate concentration, and the leaves were dried in air. The leaves were then put in a plastic cup containing sterilized black soil and five Aulacophora femoralis at second instar larvae were released in the cup. The cups were placed in a temperature-controlled chamber at 25° C. After 7 days, the number of dead larvae was counted, and thus the insecticidal activity was calculated. An insecticidal activity of 100% means that all larvae were killed, whereas an insecticidal activity of 0% means that no larva was killed.

The test system of data set [1] is Spodoptera litura. In words: Tobacco cutworm (Spodoptera litura) larvae using artificial diet. The following applies: 20 ppm, 3rd-instar larvae. Here is the method: BIOLOGICAL TEST EXAMPLE 1.2
Tobacco Cutworm (Spodoptera litura) Larvae Using Artificial Diet
2.3 g of artificial diet powder is put into a PET cup (7.5 cm diameter, 4 cm depth). The powder was leveled to make a layer in the bottom of the cup. 5 ml of a chemical solution is poured onto the powder and spread uniformly. The cup with treated diet powder is placed quiet to let the diet jell. Into each testing cup five 3rd-instar larvae were released. The testing cup is closed with the lid and placed in a temperature-controlled room at 25° C. and 50-60% R.H., 16L8D lighting conditions.
The mortality in % was determined according to the following criteria:
1 larva dead: 20% Efficacy
5 larvae dead: 100% Efficacy

For data set [2], the system named is Spodoptera litura. In words: Tobacco cutworm (Spodoptera litura) larvae, sweet potato leaf dip test. Particulars: 20 ppm; third instar larvae, treated sweet potato leaves, after 7 days. On the procedure:
Unless not mentioned otherwise, the test solutions were prepared as follows:
Solvent: dimethyl formamide, 3 parts by weight
Emulsifier: polyoxyethylene alkyl phenyl ether, 1 part by weight
To prepare the test solution, 1 part by weight of an active compound is mixed with the above-mentioned amount of solvent containing the above-mentioned amount of emulsifier, and the mixture is diluted with water to the desired concentration.
BIOLOGICAL TEST EXAMPLE 1.1
Tobacco Cutworm (Spodoptera litura) Larvae
Leaves of sweet potato were immersed in the test solution at the appropriate concentration, and the leaves were dried in air. The leaves were then placed in a petri dish having a diameter of 9 cm, and ten Spodoptera litura at third instar larvae were released therein. The petri dishes were placed in a temperature-controlled chamber at 25° C. After 2 days and 4 days more sweet potato leaves were added. After 7 days, the number of dead larvae was counted to calculate the insecticidal activity. An insecticidal activity of 100% means that all larvae were killed, whereas an insecticidal activity of 0% means that no larva was killed. In the current test, the results of two petri dishes for each treatment were averaged.

The next data set deals with Ctenocephalides felis. The experiment in a line: Ctenocephalides felis test (CTECFE), blood feeding. The following applies: 100 ppm in cattle blood; adult unfed fleas, after 2 days. On the procedure: BIOLOGICAL TEST EXAMPLE 7
Ctenocephalides felis—Test (CTECFE)
Solvent: Dimethyl Sulfoxide
To produce a suitable preparation of active compound, 10 mg of active compound are dissolved in 0.5 ml solvent, and the concentrate is diluted with cattle blood to the desired concentration. Approximately 20 adult unfed (Ctenocephalides felis) are placed in flea chambers. The blood chamber, sealed with parafilm on the bottom, are filled with cattle blood supplied with compound solution and placed on top of the flea chamber, so that the fleas are able to suck the blood. The blood chamber is heated to 37° C. whereas the flea chamber is kept at room temperature.
After 2 days mortality in % is determined. 100% means that all the fleas have been killed; 0% means that none of the fleas have been killed.

Regarding `C[C@H](NC(=O)CC1CC1)c1ccc(N2CCC(c3cc(C(F)(F)F)cc(C(F)(F)F)c3)(C(F)(F)F)C2)cc1` (some centres unmarked) [Compound 13-b], the insecticidal activity in the data set on Tetranychus urticae (20 ppm), in the data set with Aulacophora femoralis (100 ppm) and in the data set on Spodoptera litura [1] was 100% throughout.

As for `CC(=O)NC(C)c1ccc(N2CCC(c3cc(Cl)cc(Cl)c3)(C(F)(F)F)C2)cc1Cl` (centres unmarked) [Compound 3-66, reference compound], the insecticidal activity in the data set on Aulacophora femoralis (20 ppm) was determined as 50%; in the data set with Spodoptera litura [2], 20%.

With `C[C@H](NC(=O)C1CC1)c1ccc(N2CCC(c3cc(Cl)cc(C(F)(F)F)c3)(C(F)(F)F)C2)cc1` (some centres unmarked) [Compound 5-b], the insecticidal activity in the data set with Tetranychus urticae (20 ppm), in the data set on Aulacophora femoralis (20 ppm), in the data set on Spodoptera litura [1] and in the data set on Spodoptera litura [2] was 100% in each case.

In the data set on Aulacophora femoralis (100 ppm), `CCC(=O)N[C@H](C)c1ccc(N2CCC(c3cc(Cl)c(Cl)c(Cl)c3)(C(F)(F)F)C2)cc1` (some centres unmarked) [Compound 7-a] had an insecticidal activity of 100%. For the same molecule, in the data set with Ctenocephalides felis, the “activity (mortality in %)” value turned out to be 80%.

`CCC(=O)NC(C)c1ccc(N2CCC(c3cc(Cl)cc(C(F)(F)F)c3)(C(F)(F)F)C2)cc1` (racemic) [Compound 4]: the insecticidal activity in the data set on Tetranychus urticae (20 ppm), with Aulacophora femoralis (20 ppm), with Spodoptera litura [1] and in the data set on Spodoptera litura [2] was 100% throughout.

On to `CCC(=O)N[C@@H](C)c1ccc(N2CCC(c3cc(Cl)c(Cl)c(Cl)c3)(C(F)(F)F)C2)cc1` (some centres unmarked) [Compound 7-b], for which the insecticidal activity in the data set with Tetranychus urticae (20 ppm), in the data set on Aulacophora femoralis (20 ppm), with Spodoptera litura [1] and with Spodoptera litura [2] was 100% throughout.

As to `CCC(=O)N[C@@H](C)c1ccc(N2CCC(c3cc(Cl)cc(Cl)c3)(C(F)(F)F)C2)cc1` (some centres unmarked) [Compound 2-b], the insecticidal activity in the data set with Aulacophora femoralis (20 ppm), with Spodoptera litura [1] and in the data set with Spodoptera litura [2] was 100% each time.

Take `CCC(=O)NC(C)c1ccc(N2CCC(c3cc(Cl)c(Cl)c(Cl)c3)(C(F)(F)F)C2)cc1` (racemic) [Compound 7]: the insecticidal activity with Tetranychus urticae (20 ppm), in the data set with Aulacophora femoralis (100 ppm), in the data set on Spodoptera litura [1] and with Spodoptera litura [2] was 100% throughout.

`COCCC(=O)N[C@@H](C)c1ccc(N2CCC(c3cc(Cl)c(Cl)c(Cl)c3)(C(F)(F)F)C2)cc1` (some centres unmarked) [Compound 14-b]: the insecticidal activity with Tetranychus urticae (20 ppm), in the data set on Aulacophora femoralis (100 ppm) and in the data set on Spodoptera litura [1] was 100% each time.

With `C[C@H](NC(=O)C1CC1)c1ccc(N2CCC(c3cc(C(F)(F)F)nc(C(F)(F)F)c3)(C(F)(F)F)C2)cc1` (stereo partly drawn) [Compound 17-b, N-[(1S)-1-(4-{3-[2,6-bis(trifluoromethyl)pyridin-4-yl]-3-(trifluoromethyl)pyrrolidin-1-yl}phenyl)ethyl]cyclopropanecarboxamide], the insecticidal activity with Tetranychus urticae (20 ppm), in the data set on Aulacophora femoralis (20 ppm) and in the data set with Spodoptera litura [1] was 100% in each case.

For `CC(=O)NC(C)c1ccc(N2CCC(c3cc(Cl)c(Cl)c(Cl)c3)(C(F)(F)F)C2)cc1` (racemic) [Compound 6], the insecticidal activity with Tetranychus urticae (20 ppm), in the data set with Spodoptera litura [1] and with Spodoptera litura [2] was 100% throughout.

As to `C[C@H](NC(=O)CC1CC1)c1ccc(N2CCC(c3cc(Cl)c(Cl)c(Cl)c3)(C(F)(F)F)C2)cc1` (some centres unmarked) [Compound 12-b], the insecticidal activity in the data set with Tetranychus urticae (20 ppm), in the data set on Aulacophora femoralis (100 ppm) and with Spodoptera litura [1] was 100% each time.

For `CC(NC(=O)C1CC1)c1ccc(N2CCC(c3cc(Cl)cc(C(F)(F)F)c3)(C(F)(F)F)C2)cc1` (racemic) [Compound 5], the insecticidal activity in the data set with Tetranychus urticae (20 ppm), in the data set with Aulacophora femoralis (20 ppm), in the data set on Spodoptera litura [1] and in the data set with Spodoptera litura [2] was 100% each time.

For the molecule `CC(=O)NC(C)c1ccc(N2CCC(c3cc(Cl)cc(Cl)c3)(C(F)(F)F)C2)cc1` (racemic) [Compound 1], the insecticidal activity in the data set with Aulacophora femoralis (100 ppm), in the data set with Spodoptera litura [1] and in the data set on Spodoptera litura [2] was 100% in each case.

In the case of `CCC(=O)N[C@@H](C)c1ccc(N2CCC(c3cc(C(F)(F)F)cc(C(F)(F)F)c3)(C(F)(F)F)C2)cc1` (some centres unmarked) [Compound 10-b], the insecticidal activity with Tetranychus urticae (20 ppm), in the data set with Aulacophora femoralis (20 ppm), in the data set on Spodoptera litura [1] and in the data set on Spodoptera litura [2] was 100% throughout.

As for `C[C@H](NC(=O)C1CC1)c1ccc(N2CCC(c3cc(Cl)cc(Cl)c3)(C(F)(F)F)C2)cc1` (some centres unmarked) [Compound 3-b], the insecticidal activity in the data set on Tetranychus urticae (20 ppm), in the data set with Aulacophora femoralis (20 ppm), with Spodoptera litura [1] and in the data set on Spodoptera litura [2] was 100% each time.

On to `CC(NC(=O)C1CC1)c1ccc(N2CCC(c3cc(C(F)(F)F)cc(C(F)(F)F)c3)(C(F)(F)F)C2)cc1` (racemic) [Compound 11], for which the insecticidal activity in the data set with Tetranychus urticae (20 ppm), in the data set with Aulacophora femoralis (20 ppm), in the data set with Spodoptera litura [1] and in the data set with Spodoptera litura [2] was 100% in each case.

`CC(=O)N[C@@H](C)c1ccc(N2CCC(c3cc(Cl)cc(Cl)c3)(C(F)(F)F)C2)cc1` (some centres unmarked) [Compound 1-b]: the insecticidal activity in the data set with Tetranychus urticae (100 ppm), with Aulacophora femoralis (20 ppm), in the data set with Spodoptera litura [1] and in the data set on Spodoptera litura [2] was 100% each time.

With `C[C@H](NC(=O)c1c(F)cc(F)cc1F)c1ccc(N2CCC(c3cc(C(F)(F)F)cc(C(F)(F)F)c3)(C(F)(F)F)C2)cc1` (some centres unmarked) [Compound 16-b], the insecticidal activity with Tetranychus urticae (20 ppm), in the data set on Aulacophora femoralis (20 ppm) and with Spodoptera litura [1] was 100% in each case.

Turning to `CCC(=O)N[C@@H](C)c1ccc(N2CCC(c3cc(Cl)cc(C(F)(F)F)c3)(C(F)(F)F)C2)cc1` (some centres unmarked) [Compound 4-b], the insecticidal activity in the data set on Tetranychus urticae (20 ppm), with Aulacophora femoralis (20 ppm), with Spodoptera litura [1] and with Spodoptera litura [2] was 100% throughout.

In the case of `CC(=O)N[C@@H](C)c1ccc(N2CCC(c3cc(Cl)c(Cl)c(Cl)c3)(C(F)(F)F)C2)cc1` (some centres unmarked) [Compound 6-b], the insecticidal activity in the data set on Tetranychus urticae (20 ppm), in the data set on Spodoptera litura [1] and in the data set with Spodoptera litura [2] was 100% in each case.

For the molecule `CC(=O)NC(C)c1ccc(N2CCC(c3cc(C(F)(F)F)cc(C(F)(F)F)c3)(C(F)(F)F)C2)cc1` (racemic) [Compound 9], the insecticidal activity in the data set with Spodoptera litura [1] and in the data set with Spodoptera litura [2] was 100% each time.

For the molecule `CC(NC(=O)CC1CC1)c1ccc(N2CCC(c3cc(C(F)(F)F)cc(C(F)(F)F)c3)(C(F)(F)F)C2)cc1` (racemic) [Compound 13], the insecticidal activity in the data set on Tetranychus urticae (20 ppm) and in the data set with Spodoptera litura [1] was 100% in each case.

Turning to `CC(NC(=O)CC1CC1)c1ccc(N2CCC(c3cc(Cl)c(Cl)c(Cl)c3)(C(F)(F)F)C2)cc1` (racemic) [Compound 12], the insecticidal activity in the data set on Tetranychus urticae (20 ppm) and with Spodoptera litura [1] was 100% throughout. Further, the “activity (mortality in %)” value with Ctenocephalides felis is given as 95%.

In the case of `CCC(=O)N[C@H](C)c1ccc(N2CCC(c3cc(C(F)(F)F)cc(C(F)(F)F)c3)(C(F)(F)F)C2)cc1` (some centres unmarked) [Compound 10-a], the insecticidal activity in the data set with Aulacophora femoralis (20 ppm) is recorded as 100%. Moreover, the “activity (mortality in %)” value with Ctenocephalides felis is listed as 90%.
